In PubChem BioAssay AID1963847 (Molecular Pharmacology Branch, DTP, NCI, 2024):

Test system: 415267-285-R-J2-PDC complex spheroid viability
Assay: Anticancer human tumor 415267-285-R-J2-PDC patient-derived breast carcinoma cell line growth inhibition [POLQ]
Details: for IC50: curve of first compound; for viability, T/C: stronger effect = lower value; active means viability on the fitted dose curve at most 10% of control; inactive means the rest
Procedure: Multicellular complex tumor spheroid response to Polymerase (POL) inhibitors (novobiocin, ART-558, RP6685) in combination with a variety of drugs and investigational agents in selected tumor cell lines
The POL inhibitors (novobiocin, ART-558, and RP6685) were evaluated both individually and in combination with standard of care and investigational anticancer small molecules within a complex spheroid model of solid tumors. . Complex spheroids include a stromal component modeled by human endothelial cells (HUVEC) and fibroblasts modeled by human mesenchymal stem cells (MSCs). The concentration ranges selected for each drug and investigational agent were based upon clinically achievable concentrations if the clinical Cmax of the agent was known.
Compounds. The drugs and investigational agents: novobiocin (NSC847541), ART-558 (NSC835418), RP-6685 (NSC848927), peposertib (NSC802822), ceralasertib (NSC780249), elimusertib (NSC800525), camonsertib (NSC841442), AZD-1390 (NSC803789), olaparib (NSC753686), talazoparib (NSC767125), rucaparib (NSC756644), sotorasib (NSC818433), MRTX-1133 (NSC836407), SN-38 (NSC673596), topotecan (NSC609699), epotoside (NSC141540), doxorubicin (NSC123127), gemcitabine (NSC613327), 5-fluorouracil (NSC19893), paclitaxel (NSC125973), vemurafenib (NSC761431), MSA-2 (NSC828583), SN-011 (NSC837082), adavosertib (NSC754352), prexasertib (NSC758257), carboplatin (NSC241240) and oxaliplatin (NSC266046), were obtained from the National Cancer Institute (NCI) Developmental Therapeutics Program Chemical Repository (21). The FDA-approved anticancer drug set is available from the Developmental Therapeutics Program at https://dtp.cancer.gov/organization/dscb/obtaining/. […] The stock solutions were prepared in dimethyl sulfoxide (DMSO, Sigma-Aldrich, St. Louis, MO, cat. D2650), except for the platinum compounds which were prepared in saline (Quality Biological, Gaithersburg, MD, cat. 114-055-101), at 800-fold the tested concentration and stored at -70 degrees C prior to their use. All drugs and investigational agents were tested over a range starting from a high concentration at or near the clinical Cmax and decreasing in half-log increments. If the clinical Cmax for an agent had not been determined, the highest concentration tested was 10 microM, except for SN-38, which was tested at a high concentration of 1 microM.
Cell Culture. All cells were maintained in an incubator at 37 degrees C and 5% CO2 with 95% humidity. The PDC lines were cultured according to standard operating procedures established by the NCI PDMR (https://pdmr.cancer.gov). Table 3 of the manuscript, lists the cell lines along with the number of the three cell types plated to form the mct-spheroids and media for tumor cell growth. After thawing, all PDC lines, except 997537-175-T-J1-PDC and 415267-285-R-J2-PDC, were cultured in Matrigel-coated flasks prepared with a working solution of 1X Ham's F-12 nutrient mix, without supplementation (Thermo Fisher Scientific, cat. 11765054), 100 U/mL penicillin-streptomycin (Thermo Fisher Scientific, cat. 15140122), and 2.5% Matrigel (Corning Inc., Corning, NY, cat. 354248) for the first three passages. The two PDC lines 997537-175-T-J1-PDC and 415267-285-R-J2-PDC were cultured on uncoated flasks. The 857933-349-R-J2-PDC line was cultured in 6C/Colon 1B media containing advanced DMEM/F-12 (Thermo Fisher Scientific, cat. 12634028), 10 mM HEPES (Thermo Fisher Scientific, cat. 15630080), 1X GlutaMAX supplement (Thermo Fisher Scientific, cat. 35050061), 0.1 mg/mL primocin (InvivoGen, San Diego, CA, cat. ant-pm-2), 10% defined fetal bovine serum, heat inactivated (HyClone Laboratories Inc., Logan, UT, cat. SH30070.03HI), 50% L-WRN conditioned media (ATCC, cat. CRL-3276), 1.25 mM N-Acetyl-L-cysteine (Sigma-Aldrich, cat. A9165), 10 mM nicotinamide (Sigma-Aldrich, cat. N0636), 1X B-27 supplement (Thermo Fisher Scientific, cat. 17504044), 1X N-2 supplement (Thermo Fisher Scientific, cat. […]

[1] = second compound 0.0316 µM, first compound 0.0316 µM
[2] = second compound 0.0316 µM, first compound 0.1 µM
[3] = second compound 0.0316 µM, first compound 0.316 µM
[4] = second compound 0.0316 µM, first compound 1 µM
[5] = second compound 0.0316 µM, first compound 3.16 µM
[6] = second compound 0.0316 µM, first compound 10 µM
[7] = second compound 0.1 µM, first compound 0.0316 µM
[8] = second compound 0.1 µM, first compound 0.1 µM
[9] = second compound 0.1 µM, first compound 0.316 µM
[10] = second compound 0.1 µM, first compound 1 µM
[11] = second compound 0.1 µM, first compound 3.16 µM
[12] = second compound 0.1 µM, first compound 10 µM
[13] = second compound 0.316 µM, first compound 0.0316 µM
[14] = second compound 0.316 µM, first compound 0.1 µM
[15] = second compound 0.316 µM, first compound 0.316 µM
[16] = second compound 0.316 µM, first compound 1 µM
[17] = second compound 0.316 µM, first compound 3.16 µM
[18] = second compound 0.316 µM, first compound 10 µM
[19] = second compound 1 µM, first compound 0.0316 µM
[20] = second compound 1 µM, first compound 0.1 µM
[21] = second compound 1 µM, first compound 0.316 µM
[22] = second compound 1 µM, first compound 1 µM
[23] = second compound 1 µM, first compound 3.16 µM
[24] = second compound 1 µM, first compound 10 µM
[25] = second compound 3.16 µM, first compound 0.0316 µM
[26] = second compound 3.16 µM, first compound 0.1 µM
[27] = second compound 3.16 µM, first compound 0.316 µM
[28] = second compound 3.16 µM, first compound 1 µM
[29] = second compound 3.16 µM, first compound 3.16 µM
[30] = second compound 3.16 µM, first compound 10 µM
[31] = second compound 10 µM, first compound 0.0316 µM
[32] = second compound 10 µM, first compound 0.1 µM
[33] = second compound 10 µM, first compound 0.316 µM
[34] = second compound 10 µM, first compound 1 µM
[35] = second compound 10 µM, first compound 3.16 µM
[36] = second compound 10 µM, first compound 10 µM
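Further: spheroids exposed to compounds for one week before readout.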
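Wherever viability, T/C is given: luminescence used as stand-in measure of viable cells.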

C=CC(=O)N1CCN(c2nc(=O)n(-c3c(C)ccnc3C(C)C)c3nc(-c4c(O)cccc4F)c(F)cc23)C(C)C1 (stereo unspecified) + Nc1ccc(C#CCN(C(=O)Cc2ncc(C(F)(F)F)cc2C(F)(F)F)c2ccc(F)cc2)nn1
inactive: viability, T/C [1] 99.7% | viability, T/C [2] 110% | viability, T/C [3] 121% | viability, T/C [4] 114% | viability, T/C [5] 104% | viability, T/C [6] 99.6% | viability, T/C [7] 98.5% | viability, T/C [8] 103% | viability, T/C [9] 94.7% | viability, T/C [10] 100% | viability, T/C [11] 103% | viability, T/C [12] 105% | viability, T/C [13] 97.5% | viability, T/C [14] 114% | viability, T/C [15] 91.8% | viability, T/C [16] 93% | viability, T/C [17] 98.2% | viability, T/C [18] 92.5% | viability, T/C [19] 111% | viability, T/C [20] 91.7% | viability, T/C [21] 113% | viability, T/C [22] 106% | viability, T/C [23] 96% | viability, T/C [24] 105% | viability, T/C [25] 99.1% | viability, T/C [26] 106% | viability, T/C [27] 107% | viability, T/C [28] 102% | viability, T/C [29] 99.1% | viability, T/C [30] 104% | viability, T/C [31] 94.5% | viability, T/C [32] 112% | viability, T/C [33] 106% | viability, T/C [34] 107% | viability, T/C [35] 104% | viability, T/C [36] 102%
> 10 µM: IC50 (second compound 0.0316 µM) | IC50 (second compound 0.1 µM) | IC50 (second compound 0.316 µM) | IC50 (second compound 1 µM) | IC50 (second compound 3.16 µM) | IC50 (second compound 10 µM)

COc1cccc2c1C(=O)c1c(O)c3c(c(O)c1C2=O)CC(O)(C(=O)CO)CC3OC1CC(N)C(O)C(C)O1 (stereo unspecified) + Nc1ccc(C#CCN(C(=O)Cc2ncc(C(F)(F)F)cc2C(F)(F)F)c2ccc(F)cc2)nn1
0.0579 µM: IC50 (second compound 0.316 µM)
0.05 µM: IC50 (second compound 1 µM)
< 0.0316 µM: IC50 (second compound 10 µM)
0.0557 µM: IC50 (second compound 0.0316 µM)
0.0495 µM: IC50 (second compound 3.16 µM)
active: viability, T/C [3] 4.33% | viability, T/C [4] 0.75% | viability, T/C [5] 1.29% | viability, T/C [6] 3.55% | viability, T/C [9] 3.25% | viability, T/C [10] 0.65% | viability, T/C [11] 0.93% | viability, T/C [12] 3.6% | viability, T/C [15] 3.28% | viability, T/C [16] 0.8% | viability, T/C [17] 1.04% | viability, T/C [18] 3.39% | viability, T/C [20] 9.51% | viability, T/C [21] 3.66% | viability, T/C [22] 0.83% | viability, T/C [23] 1.07% | viability, T/C [24] 4.04% | viability, T/C [27] 4.28% | viability, T/C [28] 1.36% | viability, T/C [29] 1.16% | viability, T/C [30] 3.92% | viability, T/C [32] 9.57% | viability, T/C [33] 4.23% | viability, T/C [34] 1.37% | viability, T/C [35] 1.54% | viability, T/C [36] 4.35%
0.0546 µM: IC50 (second compound 0.1 µM)
inactive: viability, T/C [1] 81.1% | viability, T/C [2] 18% | viability, T/C [7] 80.9% | viability, T/C [8] 15.8% | viability, T/C [13] 80.6% | viability, T/C [14] 22.5% | viability, T/C [19] 76.9% | viability, T/C [25] 73.7% | viability, T/C [26] 13% | viability, T/C [31] 49.4%

O=C(c1cc(Cc2n[nH]c(=O)c3ccccc23)ccc1F)N1CCN(C(=O)C2CC2)CC1 + Nc1ccc(C#CCN(C(=O)Cc2ncc(C(F)(F)F)cc2C(F)(F)F)c2ccc(F)cc2)nn1
> 10 µM: IC50 (second compound 0.0316 µM) | IC50 (second compound 0.1 µM) | IC50 (second compound 0.316 µM) | IC50 (second compound 1 µM) | IC50 (second compound 3.16 µM) | IC50 (second compound 10 µM)
inactive: viability, T/C [1] 100% | viability, T/C [2] 106% | viability, T/C [3] 106% | viability, T/C [4] 97.5% | viability, T/C [5] 96% | viability, T/C [6] 99% | viability, T/C [7] 98.4% | viability, T/C [8] 103% | viability, T/C [9] 109% | viability, T/C [10] 97.2% | viability, T/C [11] 108% | viability, T/C [12] 90.8% | viability, T/C [13] 106% | viability, T/C [14] 115% | viability, T/C [15] 101% | viability, T/C [16] 114% | viability, T/C [17] 101% | viability, T/C [18] 105% | viability, T/C [19] 108% | viability, T/C [20] 109% | viability, T/C [21] 108% | viability, T/C [22] 98.5% | viability, T/C [23] 110% | viability, T/C [24] 108% | viability, T/C [25] 101% | viability, T/C [26] 101% | viability, T/C [27] 100% | viability, T/C [28] 101% | viability, T/C [29] 105% | viability, T/C [30] 115% | viability, T/C [31] 98.9% | viability, T/C [32] 96.9% | viability, T/C [33] 113% | viability, T/C [34] 107% | viability, T/C [35] 97.8% | viability, T/C [36] 102%
